Test results from PubChem BioAssay AID248 (DTP/NCI, 2004).
Inconclusive results and toxic doses are left out.

System: L1210 leukemia ip in BDF1 mice, survival T/C
Assay: NCI In Vivo Anticancer Drug Screen. Data for tumor model L1210 Leukemia (intraperitoneal) in B6D2F1 (BDF1) mice
Details: endpoint: mean survival time, higher = longer survival
How it was run: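 Tumor cells were implanted, animals were treated, and survival was followed. The result divides the treated measurement by the vehicle-control measurement.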

[1] = dose: 100.0 mg/kg/injection, schedule: Q04DX003 (ip), vehicle: Klucel (hydroxypropylcellulose) (HPC)
[2] = dose: 200.0 mg/kg/injection, schedule: Q04DX003 (ip), vehicle: Klucel (hydroxypropylcellulose) (HPC)
[3] = dose: 400.0 mg/kg/injection, schedule: Q04DX003 (ip), vehicle: Klucel (hydroxypropylcellulose) (HPC)
[4] = dose: 100.0 mg/kg/injection, schedule: Q01DX009 (ip), vehicle: Klucel (hydroxypropylcellulose) (HPC)
[5] = dose: 200.0 mg/kg/injection, schedule: Q01DX009 (ip), vehicle: Klucel (hydroxypropylcellulose) (HPC)

## CCN(CC)CCSc1nc2ccccc2[nH]1
dose: 55.0 mg/kg/injection, schedule: Q01DX Z (ip), vehicle: saline
  T/C: 104 % of control
dose: 83.0 mg/kg/injection, schedule: Q01DX Z (ip), vehicle: saline
  T/C: 91 % of control
dose: 125.0 mg/kg/injection, schedule: Q01DX Z (ip), vehicle: saline
  T/C: 94 % of control

## O=[N+]([O-])c1ccc2c(c1)/C(=N\O)c1cc(Cl)ccc1-2
dose: 100.0 mg/kg/injection, schedule: Q01DX001 (ip), vehicle: carboxymethylcellulose (CMC)
  T/C: 97 % of control
dose: 200.0 mg/kg/injection, schedule: Q01DX001 (ip), vehicle: carboxymethylcellulose (CMC)
  T/C: 97 % of control
dose: 400.0 mg/kg/injection, schedule: Q01DX001 (ip), vehicle: carboxymethylcellulose (CMC)
  T/C: 94 % of control

## COCCOCCN1CCN(CCCN2c3ccccc3Sc3ccc(C(F)(F)F)cc32)CC1
dose: 4.37 mg/kg/injection, schedule: Q04DX003 (ip), vehicle: saline
  T/C: 115 % of control
dose: 6.25 mg/kg/injection, schedule: Q04DX003 (ip), vehicle: saline
  T/C: 107 % of control
dose: 8.75 mg/kg/injection, schedule: Q04DX003 (ip), vehicle: saline
  T/C: 121 % of control
dose: 12.5 mg/kg/injection, schedule: Q04DX003 (ip), vehicle: saline
  T/C: 110 % of control
dose: 17.5 mg/kg/injection, schedule: Q04DX003 (ip), vehicle: saline
  T/C: 86 % of control
dose: 50.0 mg/kg/injection, schedule: Q04DX003 (ip), vehicle: saline
  T/C: 151 % of control

## CC(=O)OCc1cc2cc(O)ccc2nc1C
dose: 100.0 mg/kg/injection, schedule: Q04DX003 (ip), vehicle: saline
  T/C: 110 % of control
dose: 200.0 mg/kg/injection, schedule: Q04DX003 (ip), vehicle: saline
  T/C: 110 % of control
dose: 400.0 mg/kg/injection, schedule: Q04DX003 (ip), vehicle: saline
  T/C: 116 % of control

## CC(=O)CCC(=O)CCC(=O)O
dose: 100.0 mg/kg/injection, schedule: Q04DX002 (ip), vehicle: saline
  T/C: 92 % of control
dose: 200.0 mg/kg/injection, schedule: Q04DX002 (ip), vehicle: saline
  T/C: 100 % of control
dose: 400.0 mg/kg/injection, schedule: Q04DX002 (ip), vehicle: saline
  T/C: 95 % of control

## Cc1ccc(NCC(O)CN2CCN(CC(O)CNc3ccc(C)cc3)CC2)cc1 (stereo not given)
dose: 100.0 mg/kg/injection, schedule: Q01DX001 (ip), vehicle: other
  T/C: 106 % of control
[1]
  T/C: 88 % of control
dose: 200.0 mg/kg/injection, schedule: Q01DX001 (ip), vehicle: other
  T/C: 95 % of control
[2]
  T/C: 94 % of control
dose: 400.0 mg/kg/injection, schedule: Q01DX001 (ip), vehicle: other
  T/C: 95 % of control
[3]
  T/C: 91 % of control

## O=[N+]([O-])c1cc([N+](=O)[O-])c(Nc2cccc3ccccc23)c([N+](=O)[O-])c1
dose: 50.0 mg/kg/injection, schedule: Q01DX009 (ip), vehicle: Klucel (hydroxypropylcellulose) (HPC)
  T/C: 94 % of control
[4]
  T/C: 99 % of control
[1]
  T/C: 100 % of control
[5]
  T/C: 100 % of control
[2]
  T/C: 102 % of control
[3]
  T/C: 102 % of control

## C[Si](C)(C#CC1(O)CCCCC1)C(Cl)Cl
[1]
  T/C: 102 % of control
[2]
  T/C: 101 % of control
[3]
  T/C: 109 % of control

## CCOC(=O)NCCO
dose: 100.0 mg/kg/injection, schedule: Q01DX001 (ip), vehicle: saline
  T/C: 103 % of control
dose: 200.0 mg/kg/injection, schedule: Q01DX001 (ip), vehicle: saline
  T/C: 95 % of control
dose: 400.0 mg/kg/injection, schedule: Q01DX001 (ip), vehicle: saline
  T/C: 97 % of control

## Cn1c(CO)cc2ccccc21
dose: 100.0 mg/kg/injection, schedule: Q01DX009 (ip), vehicle: saline with Tween-80
  T/C: 98 % of control
dose: 100.0 mg/kg/injection, schedule: Q04DX003 (ip), vehicle: saline with Tween-80
  T/C: 96 % of control
dose: 200.0 mg/kg/injection, schedule: Q01DX009 (ip), vehicle: saline with Tween-80
  T/C: 98 % of control
dose: 200.0 mg/kg/injection, schedule: Q04DX003 (ip), vehicle: saline with Tween-80
  T/C: 96 % of control
dose: 400.0 mg/kg/injection, schedule: Q01DX009 (ip), vehicle: saline with Tween-80
  T/C: 88 % of control
dose: 400.0 mg/kg/injection, schedule: Q04DX003 (ip), vehicle: saline with Tween-80
  T/C: 98 % of control

## O=C1OC(c2ccc([N+](=O)[O-])cc2)=N/C1=C\c1cc(Br)ccc1O
[4]
  T/C: 91 % of control
[5]
  T/C: 96 % of control
dose: 400.0 mg/kg/injection, schedule: Q01DX009 (ip), vehicle: Klucel (hydroxypropylcellulose) (HPC)
  T/C: 93 % of control
